Assay results: patent publication EP3900788A1, “NON-PRODUCTIVE ANGIOGENESIS INHIBITOR FOR USE IN THE TREATMENT OF ALZHEIMER'S DISEASE” (Consejo Superior de Investigaciones Científicas (CSIC), priority 2020, dated 2021)

Test system: APP751SL/+ mice
Experiment: Sorafenib treatment of AD mice: angiogenic cell density and Aβ plaques (Thio-S staining) in brain
Assay type: in vivo
Conditions: 7-month-old APP751SL/+ mice, Sorafenib treatment 1 month vs vehicle

## CNC(=O)c1cc(Oc2ccc(NC(=O)Nc3ccc(Cl)c(C(F)(F)F)c3)cc2)ccn1 [Sorafenib]
Thio-S staining of brain
  Aβ plaque load: significantly reduced
  mean Aβ plaque area: significantly reduced
P < 0.001
  apparition of Iαvβ3+ cells in the brain (Iαvβ3+ cell density): strongly reduced
